The values that follow come from US20240246942A1, “KINASE INHIBITORS FOR THE TREATMENT OF NEURODEGENERATIVE DISEASES” (priority 2020, published 2024).

Holding throughout (assay): biochemical
The target in assay [1] is T1, panel of 374 wild-type kinases (Homo sapiens, UniProt Q13464).
T1 construct: purchased Reaction Biology Corporation
Conditions: read-out: % Enzyme Activity (relative to DMSO controls), kinase ROCK1.

For assay [2], the target named is T2, panel of 374 wild-type kinases (Homo sapiens, UniProt O00444).
T2 construct: purchased Reaction Biology Corporation
T2 sequence (O00444 1-970): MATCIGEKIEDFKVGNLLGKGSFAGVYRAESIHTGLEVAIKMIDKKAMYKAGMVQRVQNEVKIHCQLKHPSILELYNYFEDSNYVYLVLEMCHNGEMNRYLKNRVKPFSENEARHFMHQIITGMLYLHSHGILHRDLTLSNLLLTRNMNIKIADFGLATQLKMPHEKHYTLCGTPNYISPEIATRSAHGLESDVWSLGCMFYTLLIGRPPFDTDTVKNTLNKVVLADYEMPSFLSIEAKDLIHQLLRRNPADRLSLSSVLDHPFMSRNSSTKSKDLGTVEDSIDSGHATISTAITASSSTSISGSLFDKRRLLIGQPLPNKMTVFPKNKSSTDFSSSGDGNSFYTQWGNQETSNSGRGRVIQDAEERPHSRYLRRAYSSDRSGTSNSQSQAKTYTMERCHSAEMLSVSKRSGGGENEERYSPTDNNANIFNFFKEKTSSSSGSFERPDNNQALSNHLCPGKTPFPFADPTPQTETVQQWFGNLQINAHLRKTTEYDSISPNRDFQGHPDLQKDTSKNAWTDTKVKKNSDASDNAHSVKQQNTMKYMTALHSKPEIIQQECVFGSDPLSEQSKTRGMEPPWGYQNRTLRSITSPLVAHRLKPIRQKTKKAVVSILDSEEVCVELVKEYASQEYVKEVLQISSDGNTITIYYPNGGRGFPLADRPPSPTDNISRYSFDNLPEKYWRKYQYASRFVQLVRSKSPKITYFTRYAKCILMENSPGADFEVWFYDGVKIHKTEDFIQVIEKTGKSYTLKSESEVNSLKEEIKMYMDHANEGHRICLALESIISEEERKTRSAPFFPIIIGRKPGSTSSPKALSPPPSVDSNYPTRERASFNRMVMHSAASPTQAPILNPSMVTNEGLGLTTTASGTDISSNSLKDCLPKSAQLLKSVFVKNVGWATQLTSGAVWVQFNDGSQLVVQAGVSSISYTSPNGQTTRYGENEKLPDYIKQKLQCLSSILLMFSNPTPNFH
Particulars: read-out: % Enzyme Activity (relative to DMSO controls), kinase PLK4/SAK.

Assay [3] concerns the target T3, panel of 374 wild-type kinases (Homo sapiens, UniProt P45985).
T3 construct: purchased Reaction Biology Corporation
T3 sequence (P45985 1-399): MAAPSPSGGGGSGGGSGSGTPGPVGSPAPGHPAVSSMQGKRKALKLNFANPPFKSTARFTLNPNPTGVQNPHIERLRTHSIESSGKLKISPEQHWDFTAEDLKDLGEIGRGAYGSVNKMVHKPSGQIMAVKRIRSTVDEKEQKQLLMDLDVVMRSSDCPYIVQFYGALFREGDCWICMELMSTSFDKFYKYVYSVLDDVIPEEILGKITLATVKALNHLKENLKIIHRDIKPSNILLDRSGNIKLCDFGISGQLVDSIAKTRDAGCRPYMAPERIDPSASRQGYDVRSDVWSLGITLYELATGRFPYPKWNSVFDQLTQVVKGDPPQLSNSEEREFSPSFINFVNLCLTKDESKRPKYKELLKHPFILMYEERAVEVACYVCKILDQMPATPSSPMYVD
Particulars: read-out: % Enzyme Activity (relative to DMSO controls), MKK4.

The target in assay [4] is T4, panel of 374 wild-type kinases (Homo sapiens, UniProt Q13873).
T4 construct: purchased Reaction Biology Corporation
T4 sequence (Q13873 27-1038): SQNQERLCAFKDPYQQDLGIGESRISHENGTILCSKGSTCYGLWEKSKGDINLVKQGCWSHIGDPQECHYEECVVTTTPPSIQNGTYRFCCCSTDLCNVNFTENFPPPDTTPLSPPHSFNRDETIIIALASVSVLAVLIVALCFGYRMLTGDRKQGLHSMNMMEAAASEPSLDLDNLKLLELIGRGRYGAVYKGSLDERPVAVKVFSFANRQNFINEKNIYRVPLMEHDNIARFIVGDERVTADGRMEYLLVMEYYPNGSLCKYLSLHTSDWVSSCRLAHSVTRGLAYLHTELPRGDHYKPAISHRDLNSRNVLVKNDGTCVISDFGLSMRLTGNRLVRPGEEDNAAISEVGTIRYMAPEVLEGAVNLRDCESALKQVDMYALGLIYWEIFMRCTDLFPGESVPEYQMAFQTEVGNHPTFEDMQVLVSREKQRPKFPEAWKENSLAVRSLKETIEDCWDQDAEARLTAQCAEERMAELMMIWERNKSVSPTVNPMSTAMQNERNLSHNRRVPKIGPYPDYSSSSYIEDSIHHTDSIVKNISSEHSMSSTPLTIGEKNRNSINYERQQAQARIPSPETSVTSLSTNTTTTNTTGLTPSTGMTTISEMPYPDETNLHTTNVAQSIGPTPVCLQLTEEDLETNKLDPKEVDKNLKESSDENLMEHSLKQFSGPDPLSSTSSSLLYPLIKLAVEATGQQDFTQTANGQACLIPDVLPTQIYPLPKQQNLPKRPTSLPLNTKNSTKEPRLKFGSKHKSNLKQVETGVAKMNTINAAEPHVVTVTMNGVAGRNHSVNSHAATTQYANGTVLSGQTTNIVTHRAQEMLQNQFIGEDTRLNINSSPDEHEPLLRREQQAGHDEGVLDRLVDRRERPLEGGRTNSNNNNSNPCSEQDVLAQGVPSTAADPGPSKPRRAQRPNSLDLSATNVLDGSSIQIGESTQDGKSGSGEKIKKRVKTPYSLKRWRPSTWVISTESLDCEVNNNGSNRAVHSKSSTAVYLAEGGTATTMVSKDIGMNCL
Conditions: read-out: % Enzyme Activity (relative to DMSO controls), BMPR2.

T1 sequence (Q13464 whole entry): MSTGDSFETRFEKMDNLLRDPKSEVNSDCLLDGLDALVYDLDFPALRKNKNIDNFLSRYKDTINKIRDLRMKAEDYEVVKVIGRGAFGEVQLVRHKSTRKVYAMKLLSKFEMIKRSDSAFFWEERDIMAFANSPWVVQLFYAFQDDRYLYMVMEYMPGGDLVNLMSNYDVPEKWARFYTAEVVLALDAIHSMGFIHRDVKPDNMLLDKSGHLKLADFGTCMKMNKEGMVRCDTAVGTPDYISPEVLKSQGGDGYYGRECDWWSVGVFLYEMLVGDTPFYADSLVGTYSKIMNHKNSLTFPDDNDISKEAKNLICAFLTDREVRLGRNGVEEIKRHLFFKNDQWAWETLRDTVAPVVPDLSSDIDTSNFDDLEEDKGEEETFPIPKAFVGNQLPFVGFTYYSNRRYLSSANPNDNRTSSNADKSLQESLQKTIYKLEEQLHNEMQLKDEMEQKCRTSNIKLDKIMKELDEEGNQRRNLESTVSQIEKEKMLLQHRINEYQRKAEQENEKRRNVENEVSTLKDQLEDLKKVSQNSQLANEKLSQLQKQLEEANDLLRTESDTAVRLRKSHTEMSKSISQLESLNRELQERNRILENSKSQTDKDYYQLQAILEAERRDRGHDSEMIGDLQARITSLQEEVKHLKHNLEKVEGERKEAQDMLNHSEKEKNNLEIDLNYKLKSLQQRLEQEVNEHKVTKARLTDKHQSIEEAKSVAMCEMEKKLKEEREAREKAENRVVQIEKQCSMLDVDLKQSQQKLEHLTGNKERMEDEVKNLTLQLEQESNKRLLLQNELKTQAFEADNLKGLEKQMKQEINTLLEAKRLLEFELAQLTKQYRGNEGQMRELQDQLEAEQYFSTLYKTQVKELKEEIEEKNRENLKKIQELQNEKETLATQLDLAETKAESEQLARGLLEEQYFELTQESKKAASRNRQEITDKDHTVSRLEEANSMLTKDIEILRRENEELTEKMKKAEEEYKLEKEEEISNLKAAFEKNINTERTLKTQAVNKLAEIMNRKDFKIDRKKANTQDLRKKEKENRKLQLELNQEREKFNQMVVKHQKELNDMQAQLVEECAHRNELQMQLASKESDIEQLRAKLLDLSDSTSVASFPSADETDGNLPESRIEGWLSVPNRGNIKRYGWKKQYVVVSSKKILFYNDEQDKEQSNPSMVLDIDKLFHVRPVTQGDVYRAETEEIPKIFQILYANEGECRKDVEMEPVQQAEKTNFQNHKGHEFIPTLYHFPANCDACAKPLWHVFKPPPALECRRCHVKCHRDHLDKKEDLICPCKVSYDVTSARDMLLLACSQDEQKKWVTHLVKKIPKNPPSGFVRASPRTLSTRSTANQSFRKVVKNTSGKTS

For `O=C(Nc1cnn(-c2csc(C(=O)NC3COC3)c2)c1)Nc1ccccc1Cl` [Compound 17, 4-(4-(3-(2-chlorophenyl)ureido)-1H-pyrazol-1-yl)-N-(oxetan-3-yl)thiophene-2-carboxamide], the remaining activity at 5 µM in assay [1] was determined as 109%; in assay [2], 88.2%; in assay [3] it was 113%; in assay [4], 110%.
For `O=C(Nc1cnn(-c2csc(C(=O)NC3COC3)c2)c1)Nc1c(F)cccc1Cl` [Compound 25, 4-(4-(3-(2-chloro-6-fluorophenyl)ureido)-1H-pyrazol-1-yl)-N-(oxetan-3-yl)thiophene-2-carboxamide], in that order: 78.2%, 84.3%, 133% and 77.2%.
Take `Cc1sc(C(=O)NC2COC2)cc1-n1cc(NC(=O)Nc2c(F)cccc2Cl)cn1` [Compound 27, 4-(4-(3-(2-chloro-6-fluorophenyl)ureido)-1H-pyrazol-1-yl)-5-methyl-N-(oxetan-3-yl)thiophene-2-carboxamide]: the remaining activity at 10 µM worked out at 96.8% in assay [1] (10 uM), 100% in assay [2] (10 uM), 93% in assay [3] (10 uM) and 84.5% in assay [4] (10 uM).
